The assay has as its system Legionella pneumophila MMX 7515. The assay can be described thus: microbe, parasite or virus in culture. It is filed as cell-based. The settings on record: for MIC: Legionella pneumophila.
Setting [1] is: MMX7515, 24 h, read-out: MIC (in vitro activity).
Setting [2] is: MMX7515, 48 h, read-out: MIC (in vitro activity).

Values after ≈ are worked out from the molar mass of the structure shown. Where two headings read alike, the source gives them in different places. Marks after values point to notes of the source that are not given here.

The values below come from patent US20230014447A1 (priority 2019, published 2023).

On to `C[C@@H](O)[C@H]1C(=O)N2C(C(=O)O)=C(S[C@@H]3CN[C@H](C(=O)N(C)C)C3)[C@H](C)[C@H]12` [MEM, meropenem], for which the MIC under setting [1] amounted to 0.25 µg/mL (≈ 0.652 µM) and the MIC under setting [2] came to 0.5 µg/mL (≈ 1.3 µM).

For the molecule `CN[C@H](CC(C)C)C(=O)N[C@H]1C(=O)N[C@@H](CC(N)=O)C(=O)N[C@H]2C(=O)N[C@H]3C(=O)N[C@H](C(=O)N[C@H](C(=O)O)c4cc(O)cc(O)c4-c4cc3ccc4O)[C@H](O)c3ccc(c(Cl)c3)Oc3cc2cc(c3O[C@@H]2O[C@H](CO)[C@@H](O)[C@H](O)[C@H]2O[C@H]2C[C@](C)(N)[C@H](O)[C@H](C)O2)Oc2ccc(cc2Cl)[C@H]1O` [VAN, vancomycin], the MIC came to 0.12 µg/mL (≈ 0.0828 µM) under setting [1] and 0.25 µg/mL (≈ 0.173 µM) under setting [2].

Turning to gentamicin, the “MIC (in vitro activity)” value is reported as 2** μg/mL (L. pneumophila MMX 7515, plate read at 48 hr) and 1* μg/mL (Legionella pneumophila MMX 7515, plate read at 24 hr).

For the molecule `C[C@H]1COc2c(N3CCN(C)CC3)c(F)cc3c(=O)c(C(=O)O)cn1c23` [LVX, levofloxacin], the MIC stood at 0.5 µg/mL (≈ 1.38 µM) under setting [1] and 0.5 µg/mL (≈ 1.38 µM) under setting [2].

As to `C=C(C)C1CCC(C)=CC1c1c(O)cc(CCCCC)cc1O` (centres unmarked) [CBD, 2-[3-methyl-6-(1-methylethenyl)-2-cyclohexen-1-yl]-5-pentyl-1,3-benzenediol], the MIC reads like this: under setting [1], 1 µg/mL (≈ 3.18 µM); under setting [2], 1 µg/mL (≈ 3.18 µM); (MMX7515, read-out: MIC values) 1 µg/mL (≈ 3.18 µM).
